# In patent publication CN109456950A, “一种环糊精葡萄糖基转移酶的突变体及其应用” (priority 2018, dated 2019):
# Assays:
# Format in all cases: biochemical
# [1] = molecular target: T1, Bacillus circulans cyclodextrin glycosyltransferase (CGTase) variant M234V, Met234Val of parent SEQ ID NO.2 [来源于环状芽孢杆菌(B.circulans)的环糊精葡萄糖基转移酶, M234V] (Niallia circulans, UniProt P43379, M261V); test: Acceptor affinity for maltose (Km) in the disproportionation reaction, M234V; conditions: M234V vs wild type, EPS as donor, pH 5.5, 50℃, affinity expressed by Km
# T1 construct: made in house; host or cells: E. coli BL21(DE3), pET-20b(+), fermentation supernatant (crude enzyme)
# T1 sequence (P43379 28-713 M261V): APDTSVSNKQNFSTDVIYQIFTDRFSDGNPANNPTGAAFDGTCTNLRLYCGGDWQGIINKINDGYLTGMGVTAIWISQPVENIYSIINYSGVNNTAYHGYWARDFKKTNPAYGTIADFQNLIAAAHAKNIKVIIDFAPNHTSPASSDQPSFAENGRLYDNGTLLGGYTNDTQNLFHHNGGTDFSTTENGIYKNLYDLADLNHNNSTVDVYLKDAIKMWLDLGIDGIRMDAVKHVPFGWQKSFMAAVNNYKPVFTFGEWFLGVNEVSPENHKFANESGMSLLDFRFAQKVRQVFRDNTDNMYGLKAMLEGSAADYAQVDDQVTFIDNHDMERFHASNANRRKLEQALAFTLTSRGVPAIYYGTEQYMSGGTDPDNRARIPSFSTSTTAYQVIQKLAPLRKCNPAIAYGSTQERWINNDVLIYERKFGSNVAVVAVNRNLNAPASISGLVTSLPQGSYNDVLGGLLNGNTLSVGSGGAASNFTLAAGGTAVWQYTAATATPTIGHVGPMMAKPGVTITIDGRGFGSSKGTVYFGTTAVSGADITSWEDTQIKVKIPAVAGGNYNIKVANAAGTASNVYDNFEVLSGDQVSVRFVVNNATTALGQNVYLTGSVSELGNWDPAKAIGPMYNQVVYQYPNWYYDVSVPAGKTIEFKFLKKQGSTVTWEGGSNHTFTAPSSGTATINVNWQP
# [2] = molecular target: Bacillus circulans cyclodextrin glycosyltransferase (CGTase) variant M234A, Met234Ala of parent SEQ ID NO.2 [来源于环状芽孢杆菌(B.circulans)的环糊精葡萄糖基转移酶, M234A] (Niallia circulans, UniProt P43379, M261A); test: Acceptor affinity for maltose (Km) in the disproportionation reaction, M234A; conditions: M234A vs wild type, EPS as donor, pH 5.5, 50℃, affinity expressed by Km
# Sequence of Bacillus circulans cyclodextrin glycosyltransferase (CGTase) variant M234A, Met234Ala of parent SEQ ID NO.2 [来源于环状芽孢杆菌(B.circulans)的环糊精葡萄糖基转移酶, M234A] (P43379 whole entry M261A): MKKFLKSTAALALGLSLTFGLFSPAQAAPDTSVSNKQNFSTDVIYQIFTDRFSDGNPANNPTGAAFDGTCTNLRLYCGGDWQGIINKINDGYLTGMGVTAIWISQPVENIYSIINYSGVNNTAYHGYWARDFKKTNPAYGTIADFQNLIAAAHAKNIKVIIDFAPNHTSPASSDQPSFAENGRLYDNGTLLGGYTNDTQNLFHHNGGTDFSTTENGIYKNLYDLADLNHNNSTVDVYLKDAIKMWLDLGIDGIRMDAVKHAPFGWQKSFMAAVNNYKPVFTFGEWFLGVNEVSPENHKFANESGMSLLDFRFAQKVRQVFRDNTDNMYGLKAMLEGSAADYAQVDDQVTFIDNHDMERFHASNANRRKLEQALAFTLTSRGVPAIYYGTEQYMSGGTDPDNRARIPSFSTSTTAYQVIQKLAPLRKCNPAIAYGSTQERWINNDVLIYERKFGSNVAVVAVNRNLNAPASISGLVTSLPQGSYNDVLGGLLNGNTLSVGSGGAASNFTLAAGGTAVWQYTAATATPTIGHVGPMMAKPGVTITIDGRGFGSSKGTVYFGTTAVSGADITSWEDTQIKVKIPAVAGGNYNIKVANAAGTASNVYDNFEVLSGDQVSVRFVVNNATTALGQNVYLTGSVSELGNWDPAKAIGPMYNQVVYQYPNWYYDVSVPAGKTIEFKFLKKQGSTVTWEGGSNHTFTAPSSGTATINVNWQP
# [3] = molecular target: Bacillus circulans cyclodextrin glycosyltransferase (CGTase) variant M234L, Met234Leu of parent SEQ ID NO.2 [来源于环状芽孢杆菌(B.circulans)的环糊精葡萄糖基转移酶, M234L] (Niallia circulans, UniProt P43379, M261L); test: Acceptor affinity for maltose (Km) in the disproportionation reaction, M234L; conditions: M234L vs wild type, EPS as donor, pH 5.5, 50℃, affinity expressed by Km
# Sequence of Bacillus circulans cyclodextrin glycosyltransferase (CGTase) variant M234L, Met234Leu of parent SEQ ID NO.2 [来源于环状芽孢杆菌(B.circulans)的环糊精葡萄糖基转移酶, M234L] (P43379 whole entry M261L): as the sequence (P43379 whole entry M261A) above, with A261L counted along it
# [4] = molecular target: T2, Bacillus circulans cyclodextrin glycosyltransferase (CGTase) variant M234I, Met234Ile of parent SEQ ID NO.2 [来源于环状芽孢杆菌(B.circulans)的环糊精葡萄糖基转移酶, M234I] (Niallia circulans, UniProt P43379, M261I); test: Acceptor affinity for maltose (Km) in the disproportionation reaction, M234I; conditions: M234I vs wild type, EPS as donor, pH 5.5, 50℃, affinity expressed by Km
# T2 construct: made in house; host or cells: E. coli BL21(DE3), pET-20b(+), fermentation supernatant (crude enzyme)
# T2 sequence (P43379 28-713 M261I): as the sequence (P43379 28-713 M261V) above, with V234I counted along it
smiles,measurement,setting,value
OCC1OC(OC2C(CO)OC(O)C(O)C2O)C(O)C(O)C1O (stereo not shown) [麦芽糖],increase in acceptor affinity for maltose compared with wild type,[1],36.9%
same,increase in acceptor affinity for maltose compared with wild type,[2],34.7%
same,increase in acceptor affinity for maltose compared with wild type,[3],30.3%
same,increase in acceptor affinity for maltose compared with wild type,[4],45.6%
